According to PubChem BioAssay (NCI):
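GI50 marks 50% less growth. TGI: total growth inhibition.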

Tests used:
Test in all cases: DTP human tumour cell line panel, 384-well format
SNB-75 CNS = system: SNB-75 CNS
T-47D breast = system: T-47D breast
U251 glioblastoma = system: U251 glioblastoma
M14 melanoma = system: M14 melanoma
SK-MEL-5 melanoma = system: SK-MEL-5 melanoma
SF-539 CNS = system: SF-539 CNS
MALME-3M melanoma = system: MALME-3M melanoma
SR leukemia = system: SR leukemia
A549 NSCLC = system: A549 NSCLC
MDA-MB-435 melanoma = system: MDA-MB-435 melanoma
RXF 393 renal = system: RXF 393 renal
MDA-MB-231 breast = system: MDA-MB-231 breast
HCC-2998 colon = system: HCC-2998 colon
HOP-62 NSCLC = system: HOP-62 NSCLC
NCI-H226 lung = system: NCI-H226 lung
COLO 205 colon = system: COLO 205 colon
OVCAR-3 ovarian = system: OVCAR-3 ovarian
HOP-92 NSCLC = system: HOP-92 NSCLC
A498 renal = system: A498 renal
ACHN renal = system: ACHN renal
LOX IMVI melanoma = system: LOX IMVI melanoma
CAKI-1 renal = system: CAKI-1 renal
HS 578T breast = system: HS 578T breast
KM12 colon = system: KM12 colon
HL-60(TB) leukemia = system: HL-60(TB) leukemia
OVCAR-5 ovarian = system: OVCAR-5 ovarian
SNB-19 CNS = system: SNB-19 CNS
NCI-H522 lung = system: NCI-H522 lung
NCI-H322M lung = system: NCI-H322M lung
HCT-116 colon = system: HCT-116 colon
SN12C renal = system: SN12C renal
MCF7 breast = system: MCF7 breast
SF-268 CNS = system: SF-268 CNS
NCI-H460 NSCLC = system: NCI-H460 NSCLC
NCI-H23 lung = system: NCI-H23 lung
BT-549 breast = system: BT-549 breast
PC-3 prostate = system: PC-3 prostate
TK-10 renal = system: TK-10 renal
DU-145 prostate = system: DU-145 prostate
MOLT-4 leukemia = system: MOLT-4 leukemia
NCI/ADR-RES ovarian = system: NCI/ADR-RES ovarian
MDA-MB-468 breast = system: MDA-MB-468 breast
UACC-257 melanoma = system: UACC-257 melanoma
OVCAR-4 ovarian = system: OVCAR-4 ovarian
HCT-15 colon = system: HCT-15 colon
EKVX NSCLC = system: EKVX NSCLC
SK-OV-3 ovarian = system: SK-OV-3 ovarian
RPMI-8226 leukemia = system: RPMI-8226 leukemia
UACC-62 melanoma = system: UACC-62 melanoma
IGROV1 ovarian = system: IGROV1 ovarian
HT29 colon = system: HT29 colon
SF-295 CNS = system: SF-295 CNS
SK-MEL-28 melanoma = system: SK-MEL-28 melanoma
OVCAR-8 ovarian = system: OVCAR-8 ovarian

**Q.** `O=C(CCCCCCNC(=O)c1cnc(N(c2ccccc2)c2ccccc2)nc1)NO` was tested. Which GI50 (SNB-75 CNS) did it give?
**A.** 4.65 µM

**Q.** And the TGI (SNB-75 CNS)?
**A.** 30.3 µM

**Q.** And the GI50 (T-47D breast)?
**A.** 1.73 µM

**Q.** And the TGI (T-47D breast)?
**A.** 4.32 µM

**Q.** And the GI50 (U251 glioblastoma)?
**A.** 1.85 µM

**Q.** And the TGI (U251 glioblastoma)?
**A.** 4.3 µM

**Q.** And the GI50 (M14 melanoma)?
**A.** 3.7 µM

**Q.** What about the TGI (M14 melanoma) of the same compound?
**A.** 14.8 µM

**Q.** What about the GI50 (SK-MEL-5 melanoma) of the same compound?
**A.** 2.02 µM

**Q.** What about the TGI (SK-MEL-5 melanoma) of the same compound?
**A.** 4.16 µM

**Q.** What about the GI50 (SF-539 CNS) of the same compound?
**A.** 5.25 µM

**Q.** And the TGI (SF-539 CNS)?
**A.** 22.4 µM

**Q.** What about the GI50 (MALME-3M melanoma) of the same compound?
**A.** 1.49 µM

**Q.** What about the TGI (MALME-3M melanoma) of the same compound?
**A.** 5.49 µM

**Q.** And the GI50 (SR leukemia)?
**A.** 0.323 µM

**Q.** And the TGI (SR leukemia)?
**A.** 1.2 µM

**Q.** And the GI50 (A549 NSCLC)?
**A.** 10.1 µM

**Q.** What about the TGI (A549 NSCLC) of the same compound?
**A.** 25 µM

**Q.** What about the GI50 (MDA-MB-435 melanoma) of the same compound?
**A.** 2.38 µM

**Q.** And the TGI (MDA-MB-435 melanoma)?
**A.** 5.28 µM

**Q.** And the GI50 (RXF 393 renal)?
**A.** 4.37 µM

**Q.** What about the TGI (RXF 393 renal) of the same compound?
**A.** 17.4 µM

**Q.** What about the GI50 (MDA-MB-231 breast) of the same compound?
**A.** 2.19 µM

**Q.** What about the TGI (MDA-MB-231 breast) of the same compound?
**A.** 6.61 µM

**Q.** And the GI50 (HCC-2998 colon)?
**A.** 2.7 µM

**Q.** What about the TGI (HCC-2998 colon) of the same compound?
**A.** 8.93 µM

**Q.** What about the GI50 (HOP-62 NSCLC) of the same compound?
**A.** 2.31 µM

**Q.** What about the TGI (HOP-62 NSCLC) of the same compound?
**A.** 10.3 µM

**Q.** What about the GI50 (NCI-H226 lung) of the same compound?
**A.** 10.7 µM

**Q.** And the TGI (NCI-H226 lung)?
**A.** 26.2 µM

**Q.** What about the GI50 (COLO 205 colon) of the same compound?
**A.** 2 µM

**Q.** And the TGI (COLO 205 colon)?
**A.** 3.9 µM

**Q.** What about the GI50 (OVCAR-3 ovarian) of the same compound?
**A.** 2.01 µM

**Q.** What about the TGI (OVCAR-3 ovarian) of the same compound?
**A.** 8.19 µM

**Q.** What about the GI50 (HOP-92 NSCLC) of the same compound?
**A.** 3.26 µM

**Q.** And the TGI (HOP-92 NSCLC)?
**A.** 13.4 µM

**Q.** What about the GI50 (A498 renal) of the same compound?
**A.** 3.49 µM

**Q.** And the TGI (A498 renal)?
**A.** 16.2 µM

**Q.** And the GI50 (ACHN renal)?
**A.** 7.93 µM

**Q.** What about the TGI (ACHN renal) of the same compound?
**A.** 22.1 µM

**Q.** What about the GI50 (LOX IMVI melanoma) of the same compound?
**A.** 1.97 µM

**Q.** What about the TGI (LOX IMVI melanoma) of the same compound?
**A.** 4.3 µM

**Q.** And the GI50 (CAKI-1 renal)?
**A.** 4.36 µM

**Q.** And the TGI (CAKI-1 renal)?
**A.** 16.6 µM

**Q.** And the GI50 (HS 578T breast)?
**A.** 1.97 µM

**Q.** And the TGI (HS 578T breast)?
**A.** 6.37 µM

**Q.** What about the GI50 (KM12 colon) of the same compound?
**A.** 3.53 µM

**Q.** What about the TGI (KM12 colon) of the same compound?
**A.** 16.1 µM

**Q.** What about the GI50 (HL-60(TB) leukemia) of the same compound?
**A.** 2.36 µM

**Q.** And the TGI (HL-60(TB) leukemia)?
**A.** 3.82 µM

**Q.** And the GI50 (OVCAR-5 ovarian)?
**A.** 1.84 µM

**Q.** What about the TGI (OVCAR-5 ovarian) of the same compound?
**A.** 4.8 µM

**Q.** And the GI50 (SNB-19 CNS)?
**A.** 3.59 µM

**Q.** What about the TGI (SNB-19 CNS) of the same compound?
**A.** 12.9 µM

**Q.** And the GI50 (NCI-H522 lung)?
**A.** 2.14 µM

**Q.** And the TGI (NCI-H522 lung)?
**A.** 8.63 µM

**Q.** What about the GI50 (NCI-H322M lung) of the same compound?
**A.** 3.52 µM

**Q.** What about the TGI (NCI-H322M lung) of the same compound?
**A.** 16.9 µM

**Q.** What about the GI50 (HCT-116 colon) of the same compound?
**A.** 2.79 µM

**Q.** What about the TGI (HCT-116 colon) of the same compound?
**A.** 10.5 µM

**Q.** What about the GI50 (SN12C renal) of the same compound?
**A.** 2.48 µM

**Q.** What about the TGI (SN12C renal) of the same compound?
**A.** 8.92 µM

**Q.** And the GI50 (MCF7 breast)?
**A.** 2.18 µM

**Q.** And the TGI (MCF7 breast)?
**A.** 11.8 µM

**Q.** And the GI50 (SF-268 CNS)?
**A.** 2.86 µM

**Q.** And the TGI (SF-268 CNS)?
**A.** 10.1 µM

**Q.** What about the GI50 (NCI-H460 NSCLC) of the same compound?
**A.** 2.22 µM

**Q.** And the TGI (NCI-H460 NSCLC)?
**A.** 11.3 µM

**Q.** What about the GI50 (NCI-H23 lung) of the same compound?
**A.** 4.27 µM

**Q.** And the TGI (NCI-H23 lung)?
**A.** 21.2 µM

**Q.** And the GI50 (BT-549 breast)?
**A.** 3.08 µM

**Q.** And the TGI (BT-549 breast)?
**A.** 13.3 µM

**Q.** What about the GI50 (PC-3 prostate) of the same compound?
**A.** 2.52 µM

**Q.** What about the TGI (PC-3 prostate) of the same compound?
**A.** 8.1 µM

**Q.** What about the GI50 (TK-10 renal) of the same compound?
**A.** 3.37 µM

**Q.** What about the TGI (TK-10 renal) of the same compound?
**A.** 12.5 µM

**Q.** And the GI50 (DU-145 prostate)?
**A.** 2.18 µM

**Q.** And the TGI (DU-145 prostate)?
**A.** 5.88 µM

**Q.** What about the GI50 (MOLT-4 leukemia) of the same compound?
**A.** 1.34 µM

**Q.** And the TGI (MOLT-4 leukemia)?
**A.** 2.62 µM

**Q.** What about the GI50 (NCI/ADR-RES ovarian) of the same compound?
**A.** 8.89 µM

**Q.** And the TGI (NCI/ADR-RES ovarian)?
**A.** 84.1 µM

**Q.** What about the GI50 (MDA-MB-468 breast) of the same compound?
**A.** 1.5 µM

**Q.** What about the TGI (MDA-MB-468 breast) of the same compound?
**A.** 4.12 µM

**Q.** What about the GI50 (UACC-257 melanoma) of the same compound?
**A.** 1.07 µM

**Q.** And the TGI (UACC-257 melanoma)?
**A.** 5.12 µM

**Q.** What about the GI50 (OVCAR-4 ovarian) of the same compound?
**A.** 3.22 µM

**Q.** And the TGI (OVCAR-4 ovarian)?
**A.** 13 µM

**Q.** What about the GI50 (HCT-15 colon) of the same compound?
**A.** 13 µM

**Q.** What about the TGI (HCT-15 colon) of the same compound?
**A.** 41.6 µM

**Q.** And the GI50 (EKVX NSCLC)?
**A.** 11.3 µM

**Q.** What about the TGI (EKVX NSCLC) of the same compound?
**A.** 43.8 µM

**Q.** What about the GI50 (SK-OV-3 ovarian) of the same compound?
**A.** 2.92 µM

**Q.** What about the TGI (SK-OV-3 ovarian) of the same compound?
**A.** 14.1 µM

**Q.** And the GI50 (RPMI-8226 leukemia)?
**A.** 0.573 µM

**Q.** What about the TGI (RPMI-8226 leukemia) of the same compound?
**A.** 1.81 µM

**Q.** And the GI50 (UACC-62 melanoma)?
**A.** 1.55 µM

**Q.** And the TGI (UACC-62 melanoma)?
**A.** 4.13 µM

**Q.** What about the GI50 (IGROV1 ovarian) of the same compound?
**A.** 2.13 µM

**Q.** What about the TGI (IGROV1 ovarian) of the same compound?
**A.** 6.57 µM

**Q.** What about the GI50 (HT29 colon) of the same compound?
**A.** 3.14 µM

**Q.** And the TGI (HT29 colon)?
**A.** 13.2 µM

**Q.** What about the GI50 (SF-295 CNS) of the same compound?
**A.** 4.5 µM

**Q.** What about the TGI (SF-295 CNS) of the same compound?
**A.** 15.6 µM

**Q.** And the GI50 (SK-MEL-28 melanoma)?
**A.** 3.23 µM

**Q.** What about the TGI (SK-MEL-28 melanoma) of the same compound?
**A.** 12.8 µM

**Q.** And the GI50 (OVCAR-8 ovarian)?
**A.** 2.12 µM

**Q.** What about the TGI (OVCAR-8 ovarian) of the same compound?
**A.** 13.9 µM
